In patent US7064120B2, “Tricyclic pyridyl carboxamides and derivatives thereof tocolytic oxytocin receptor antagonists” (Wyeth, priority 2001, dated 2006):

biological target: T1, human vasopressin V2 receptor subtype (Homo sapiens, UniProt P30518); assay: Vasopressin binding in CHO cell membranes expressing human vasopressin V2 subtype receptors ([3H]arginine vasopressin radioligand binding); settings: 100 nM
T1 construct: host or cells: CHO cells, stably transfected (pZeoSV vector)
Summary of the method: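 Membranes from CHO cells stably expressing human V2 receptor (25 to 50 μg protein/well) incubated 60 min at room temperature with [3H]arginine vasopressin in Tris-HCl pH 7.4 buffer with MgCl2, BSA and protease inhibitors. Filtration, scintillation counting; percent inhibition at one concentration or IC50 (nM).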

T1 sequence (P30518 whole entry): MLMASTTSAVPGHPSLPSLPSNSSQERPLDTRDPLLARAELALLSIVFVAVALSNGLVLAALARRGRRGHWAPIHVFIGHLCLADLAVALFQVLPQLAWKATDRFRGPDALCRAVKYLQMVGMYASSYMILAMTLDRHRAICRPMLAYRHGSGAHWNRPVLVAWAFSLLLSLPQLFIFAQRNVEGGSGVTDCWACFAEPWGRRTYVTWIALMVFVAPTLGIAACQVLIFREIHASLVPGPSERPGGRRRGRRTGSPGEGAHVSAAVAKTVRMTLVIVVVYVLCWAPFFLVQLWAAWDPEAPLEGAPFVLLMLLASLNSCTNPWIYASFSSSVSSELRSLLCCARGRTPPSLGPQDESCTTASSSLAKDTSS

| SMILES | inhibition at 0.1 µM [%] | V2 % inhibition @ 100 nM [%] |
| --- | --- | --- |
| CN(CCc1ccccn1)C(=O)c1ccc2n1Cc1ccccc1N(C(=O)c1ccc(-c3cccc4ccccc34)cc1Cl)C2 [Example 73, 10-[2-Chloro-4-(naphthalen-1-yl)benzoyl]-N-methyl-N-[2-(2-pyridinyl)ethyl]-10,11-dihydro-5H-pyrrolo[2,1-c][1,4]benzodiazepine-3-carboxamide] | 16 | – |
| Cc1ccccc1-c1ccc(C(=O)N2Cc3ccc(C(=O)N(C)CCc4ccccn4)n3Cc3ccccc32)cc1 [Example 68, N-Methyl-10-[(2′-methyl-[1,1′-biphenyl]-4-yl)carbonyl]-N-[2-(2-pyridinyl)ethyl]-10,11-dihydro-5H-pyrrolo[2,1-c][1,4]benzodiazepine-3-carboxamide] | 13 | – |
| COc1ccccc1-c1ccc(C(=O)N2Cc3ccc(C(=O)N(C)CCc4ccccn4)n3Cc3ccccc32)cc1C [Example 65, 10-[(2′-Methoxy-2-methyl-[1,1′-biphenyl]-4-yl)carbonyl]-N-methyl-N-[2-(2-pyridinyl)ethyl]-10,11-dihydro-5H-pyrrolo[2,1-c][1,4]benzodiazepine-3-carboxamide] | 16 | – |
| COc1cccc(-c2ccc(C(=O)N3Cc4ccc(C(=O)N(C)CCc5ccccn5)n4Cc4ccccc43)cc2OC)c1 [Example 72, 10-[(2,3′-Dimethoxy-[1,1′-biphenyl]-4-yl)carbonyl]-N-methyl-N-[2-(2-pyridinyl)ethyl]-10,11-dihydro-5H-pyrrolo[2,1-c][1,4]benzodiazepine-3-carboxamide] | 11 | – |
| Cc1cc(C(=O)N2Cc3ccc(C(=O)N4CCN(c5ccncc5)CC4)n3Cc3ccccc32)ccc1-c1ccccc1C(F)(F)F [Example 1] | – | 18 |
| COc1ccccc1-c1ccc(C(=O)N2Cc3ccc(C(=O)N(C)CCc4ccccn4)n3Cc3ccccc32)cc1 [Example 67, 10-[(2′-Methoxy-[1,1′-biphenyl]-4-yl)carbonyl]-N-methyl-N-[2-(2-pyridinyl)ethyl]-10,11-dihydro-5H-pyrrolo[2,1-c][1,4]benzodiazepine-3-carboxamide] | 24 | – |
| Cc1ccccc1-c1ccc(C(=O)N2Cc3ccc(C(=O)N(C)CCc4ccccn4)n3Cc3ccccc32)cc1C [Example 66, 10-[(2,2′-Dimethyl-[1,1′-biphenyl]-4-yl)carbonyl]-N-methyl-N-[2-(2-pyridinyl)ethyl]-10,11-dihydro-5H-pyrrolo[2,1-c][1,4]benzodiazepine-3-carboxamide] | 24 | – |

Continued, in another order:

| inhibition at 0.1 µM [%] | SMILES | V2 % inhibition @ 100 nM [%] |
| --- | --- | --- |
| 6 | Cc1ccccc1-c1ccc(C(=O)N2Cc3ccc(C(=O)N(C)Cc4cccnc4)n3Cc3ccccc32)cc1 [Example 105, N-Methyl-10-[(2′-methyl-[1,1′-biphenyl]-4-yl)carbonyl]-N-(3-pyridinylmethyl)-10,11-dihydro-5H-pyrrolo[2,1-c][1,4]benzodiazepine-3-carboxamide] | – |
| 21 | Cc1ccccc1-c1ccc(C(=O)N2Cc3ccc(C(=O)N4CCN(c5ccccn5)CC4)n3Cc3ccccc32)cc1C [Example 76, {10-[(2,2′-Dimethyl-[1,1′-biphenyl]-4-yl)carbonyl]-10,11-dihydro-5H-pyrrolo[2,1-c][1,4]benzodiazepin-3-yl}[4-(2-pyridinyl)-1-piperazinyl]methanone] | – |
| 0 | Cc1cc(C(=O)N2Cc3ccc(C(=O)NCc4ccncc4)n3Cc3ccccc32)ccc1-c1ccccc1C(F)(F)F [Example 100, 10-{[2-Methyl-2′-trifluoromethyl-[1,1′-biphenyl]-4-yl]carbonyl}-N-(4-pyridinylmethyl)-10,11-dihydro-5H-pyrrolo[2,1-c][1,4]benzodiazepine-3-carboxamide] | – |
| 8 | COc1cccc(-c2cc(OC)c(C(=O)N3Cc4ccc(C(=O)N5CCN(c6ccccn6)CC5)n4Cc4ccccc43)cc2Cl)c1 [Example 82, {10-[(6-Chloro-3,3′-dimethoxy-[1,1′-biphenyl]-4-yl)carbonyl]-10,11-dihydro-5H-pyrrolo[2,1-c][1,4]benzodiazepin-3-yl}[4-(2-pyridinyl)-1-piperazinyl]methanone] | – |
| 9 | COc1ccccc1-c1ccc(C(=O)N2Cc3ccc(C(=O)N4CCN(c5ccccn5)CC4)n3Cc3ccccc32)cc1C [Example 75, {10-[(2′-Methoxy-2-methyl-[1,1′-biphenyl]-4-yl)carbonyl]-10,11-dihydro-5H-pyrrolo[2,1-c][1,4]benzodiazepin-3-yl}[4-(2-pyridinyl)-1-piperazinyl]methanone] | – |
| 5 | COc1cc(-c2ccccc2C)c(Cl)cc1C(=O)N1Cc2ccc(C(=O)NCc3ccncc3)n2Cc2ccccc21 [Example 94, 10-[(6-Chloro-3-methoxy-2′-methyl-[1,1′-biphenyl]-4-yl)carbonyl]-N-(4-pyridinylmethyl)-10,11-dihydro-5H-pyrrolo[2,1-c][1,4]benzodiazepine-3-carboxamide] | – |
| 10 | COc1ccccc1-c1ccc(C(=O)N2Cc3ccc(C(=O)NCc4ccncc4)n3Cc3ccccc32)cc1 [Example 91, 10-[(2′-Methoxy-[1,1′-biphenyl]-4-yl)carbonyl]-N-(4-pyridinylmethyl)-10,11-dihydro-5H-pyrrolo[2,1-c][1,4]benzodiazepine-3-carboxamide] | – |
| 13 | COc1ccccc1-c1ccc(C(=O)N2Cc3ccc(C(=O)NCc4ccncc4)n3Cc3ccccc32)cc1C [Example 88, 10-[(2′-Methoxy-2-methyl-[1,1′-biphenyl]-4-yl)carbonyl]-N-(4-pyridinylmethyl)-10,11-dihydro-5H-pyrrolo[2,1-c][1,4]benzodiazepine-3-carboxamide] | – |
| 27 | COc1cc(C(=O)N2Cc3ccc(C(=O)NCc4ccncc4)n3Cc3ccccc32)ccc1-c1ccccc1C [Example 93, 10-[(2-Methoxy-2′-methyl-[1,1′-biphenyl]-4-yl)carbonyl]-N-(4-pyridinylmethyl)-10,11-dihydro-5H-pyrrolo[2,1-c][1,4]benzodiazepine-3-carboxamide] | – |
| 11 | COc1cccc(-c2ccc(C(=O)N3Cc4ccc(C(=O)NCc5ccncc5)n4Cc4ccccc43)cc2C)c1 [Example 90, 10-[(3′-Methoxy-2-methyl-[1,1′-biphenyl]-4-yl)carbonyl]-N-(4-pyridinylmethyl)-10,11-dihydro-5H-pyrrolo[2,1-c][1,4]benzodiazepine-3-carboxamide] | – |
| 8 | COc1ccccc1-c1ccc(C(=O)N2Cc3ccc(C(=O)N4CCN(c5ccccn5)CC4)n3Cc3ccccc32)cc1 [Example 78, {10-[(2′-Methoxy-[1,1′-biphenyl]-4-yl)carbonyl]-10,11-dihydro-5H-pyrrolo[2,1-c][1,4]benzodiazepin-3-yl}[4-(2-pyridinyl)-1-piperazinyl]methanone] | – |
| 1 | Cc1cc(C(=O)N2Cc3ccc(C(=O)N(C)CCc4ccccn4)n3Cc3ccccc32)ccc1-c1ccccc1C(F)(F)F [Example 74, N-Methyl-10-{[2-methyl-2′-trifluoromethyl-[1,1′-biphenyl]-4-yl]carbonyl}-N-[2-(2-pyridinyl)ethyl]-10,11-dihydro-5H-pyrrolo[2,1-c][1,4]benzodiazepine-3-carboxamide] | – |
| 10 | COc1cccc(-c2ccc(C(=O)N3Cc4ccc(C(=O)N5CCN(c6ccccn6)CC5)n4Cc4ccccc43)cc2C)c1 [Example 77, {10-[(3′-Methoxy-2-methyl-[1,1′-biphenyl]-4-yl)carbonyl]-10,11-dihydro-5H-pyrrolo[2,1-c][1,4]benzodiazepin-3-yl}[4-(2-pyridinyl)-1-piperazinyl]methanone] | – |
| 12 | O=C(NCc1ccncc1)c1ccc2n1Cc1ccccc1N(C(=O)c1ccc(-c3cccc4ccccc34)cc1Cl)C2 [Example 99, 10-[2-Chloro-4-(naphthalen-1-yl)benzoyl]-N-(4-pyridinylmethyl)-10,11-dihydro-5H-pyrrolo[2,1-c][1,4]benzodiazepine-3-carboxamide] | – |

same assay, conditions: value in parentheses

| SMILES | IC50 [nM] |
| --- | --- |
| COc1cc(C(=O)N2Cc3ccc(C(=O)N(C)Cc4ccc[n+]([O-])c4)n3Cc3ccccc32)ccc1-c1ccccc1C(F)(F)F [Example 8, 10-{[2-Methoxy-2′-trifluoromethyl-[1,1′-biphenyl]-4-yl]carbonyl}-N-methyl-N-(1-oxo-pyridin-3-ylmethyl)-10,11-dihydro-5H-pyrrolo[2,1-c][1,4]benzodiazepine-3-carboxamide] | 237 |
| COc1cc(-c2ccccc2C(F)(F)F)c(Cl)cc1C(=O)N1Cc2ccc(C(=O)N(C)Cc3cccnc3)n2Cc2ccccc21 [Example 5, 10-{[6-Chloro-3-methoxy-2′-trifluoromethyl-[1,1′-biphenyl]-4-yl]carbonyl}-N-methyl-N-(pyridin-3-ylmethyl)-10,11-dihydro-5H-pyrrolo[2,1-c][1,4]benzodiazepine-3-carboxamide] | 433 |
| COc1cc(-c2ccccc2Cl)c(Cl)cc1C(=O)N1Cc2ccc(C(=O)N(C)Cc3cccnc3)n2Cc2ccccc21 [Example 6, 10-[(2′,6-Dichloro-3-methoxy-[1,1′-biphenyl]-4-yl)carbonyl]-N-methyl-N-(pyridin-3-ylmethyl)-10,11-dihydro-5H-pyrrolo[2,1-c][1,4]benzodiazepine-3-carboxamide] | 309 |
| COc1cccc(-c2ccc(C(=O)N3Cc4ccc(C(=O)N(C)CCc5ccccn5)n4Cc4ccccc43)cc2C)c1 [Example 62, 10-[(3′-Methoxy-2-methyl-[1,1′-biphenyl]-4-yl)carbonyl]-N-methyl-N-[2-(2-pyridinyl)ethyl]-10,11-dihydro-5H-pyrrolo[2,1-c][1,4]benzodiazepine-3-carboxamide] | 1490 |
| COc1ccccc1-c1ccc(C(=O)N2Cc3ccc(C(=O)N4CCN(c5ccncc5)CC4)n3Cc3ccccc32)cc1C [Example 113, {10-[(2′-Methoxy-2-methyl-[1,1′-biphenyl]-4-yl)carbonyl]-10,11-dihydro-5H-pyrrolo[2,1-c][1,4]benzodiazepin-3-yl}[4-(4-pyridinyl)-1-piperazinyl]methanone] | 545 |

system: not given; assay: not given; settings: not given

| SMILES | melting point |
| --- | --- |
| COc1cc(C(=O)N2Cc3ccc(C(=O)N(C)Cc4ccc[n+]([O-])c4)n3Cc3ccccc32)ccc1-c1ccccc1C(F)(F)F [Example 8, 10-{[2-Methoxy-2′-trifluoromethyl-[1,1′-biphenyl]-4-yl]carbonyl}-N-methyl-N-(1-oxo-pyridin-3-ylmethyl)-10,11-dihydro-5H-pyrrolo[2,1-c][1,4]benzodiazepine-3-carboxamide] | 165 to 170 °C (dec.) |
| COc1cc(-c2ccccc2C(F)(F)F)c(Cl)cc1C(=O)N1Cc2ccc(C(=O)N(C)Cc3cccnc3)n2Cc2ccccc21 [Example 5, 10-{[6-Chloro-3-methoxy-2′-trifluoromethyl-[1,1′-biphenyl]-4-yl]carbonyl}-N-methyl-N-(pyridin-3-ylmethyl)-10,11-dihydro-5H-pyrrolo[2,1-c][1,4]benzodiazepine-3-carboxamide] | 124 to 126 °C |
| COc1cc(-c2ccccc2Cl)c(Cl)cc1C(=O)N1Cc2ccc(C(=O)N(C)Cc3cccnc3)n2Cc2ccccc21 [Example 6, 10-[(2′,6-Dichloro-3-methoxy-[1,1′-biphenyl]-4-yl)carbonyl]-N-methyl-N-(pyridin-3-ylmethyl)-10,11-dihydro-5H-pyrrolo[2,1-c][1,4]benzodiazepine-3-carboxamide] | 196 to 198 °C |
